Experimental data from patent US20100267561A1, “HERBICIDAL PYRIDAZINONE DERIVATIVES” (priority 2007, published 2010).

Columns and labels:
Assay in all cases: Test E pre-/postemergence plant response
Type in all cases: in vivo
[1] = tested on: southern (S.) sandbur (Cenchrus echinatus); details: scale 0 to 100
Outline: (§1)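 Plants scored visually versus controls on a 0–100 scale (100 = complete control) 14 to 21 days after treatment in the greenhouse. Test chemicals in a surfactant-containing non-phytotoxic solvent were applied to soil preemergence or to 1- to 4-leaf plants, 2–18 cm tall.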

[2] = tested on: johnsongrass (Sorghum halepense); details: scale 0 to 100
Outline: as §1

[3] = tested on: common purslane (Portulaca oleracea); details: scale 0 to 100
Outline: as §1

[4] = tested on: common mallow (Malva sylvestris); details: scale 0 to 100
Outline: as §1

[5] = tested on: common groundsel (Senecio vulgaris); details: Postemergence, scale 0 to 100
Outline: as §1

[6] = tested on: Italian ryegrass (Lolium multiflorum); details: scale 0 to 100
Outline: as §1

[7] = tested on: green foxtail (Setaria viridis); details: scale 0 to 100
Outline: as §1

[8] = tested on: dallisgrass (Paspalum dilatatum); details: scale 0 to 100
Outline: as §1

[9] = tested on: purple nutsedge (Cyperus rotundus); details: scale 0 to 100
Outline: as §1

[10] = tested on: barnyardgrass (Echinochloa crus-galli); details: scale 0 to 100
Outline: as §1

[11] = tested on: surinam grass (Brachiaria decumbens); details: scale 0 to 100
Outline: as §1

[12] = tested on: naked crabgrass (Digitaria nuda); details: scale 0 to 100
Outline: as §1

[13] = tested on: annual bluegrass (Poa annua); details: scale 0 to 100
Outline: as §1

[14] = tested on: guineagrass (Panicum maximum); details: scale 0 to 100
Outline: as §1

[15] = tested on: itchgrass (Rottboellia cochinchinensis); details: scale 0 to 100
Outline: as §1

Cc1cc(-c2ccc(Cl)cc2)nn1-c1c(OS(=O)(=O)c2ccccc2)cnn(C)c1=O [Compound 35]
Plant response rating, Sandbur, S. ([1]; 16 g ai/ha, Preemergence): 75 | Plant response rating, Sandbur, S. ([1]; 31 g ai/ha, Preemergence): 90 | Plant response rating, Sandbur, S. ([1]; 62 g ai/ha, Preemergence): 100 | Plant response rating, Sandbur, S. ([1]; Postemergence, 8 g ai/ha): 40 | Plant response rating, Sandbur, S. ([1]; Postemergence, 16 g ai/ha): 75 | Plant response rating, Sandbur, S. ([1]; Postemergence, 31 g ai/ha): 75 | Plant response rating, Sandbur, S. ([1]; Postemergence, 62 g ai/ha): 75 | Plant response rating, Johnsongrass ([2]; 16 g ai/ha, Preemergence): 75 | Plant response rating, Johnsongrass ([2]; 31 g ai/ha, Preemergence): 80 | Plant response rating, Johnsongrass ([2]; 62 g ai/ha, Preemergence): 90 | Plant response rating, Johnsongrass ([2]; Postemergence, 8 g ai/ha): 40 | Plant response rating, Johnsongrass ([2]; Postemergence, 16 g ai/ha): 50 | Plant response rating, Johnsongrass ([2]; Postemergence, 31 g ai/ha): 70 | Plant response rating, Johnsongrass ([2]; Postemergence, 62 g ai/ha): 98 | Plant response rating, Purslane ([3]; 16 g ai/ha, Preemergence): 0 | Plant response rating, Purslane ([3]; 31 g ai/ha, Preemergence): 0 | Plant response rating, Purslane ([3]; 62 g ai/ha, Preemergence): 0 | Plant response rating, Purslane ([3]; Postemergence, 8 g ai/ha): 0 | Plant response rating, Purslane ([3]; Postemergence, 16 g ai/ha): 0 | Plant response rating, Purslane ([3]; Postemergence, 31 g ai/ha): 0 | Plant response rating, Purslane ([3]; Postemergence, 62 g ai/ha): 0 | Plant response rating, Mallow ([4]; 62 g ai/ha, Preemergence): 0 | Plant response rating, Mallow ([4]; Postemergence, 8 g ai/ha): 0 | Plant response rating, Mallow ([4]; Postemergence, 16 g ai/ha): 0 | Plant response rating, Mallow ([4]; Postemergence, 31 g ai/ha): 0 | Plant response rating, Mallow ([4]; Postemergence, 62 g ai/ha): 0 | Plant response rating, Groundsel ([5]; 8 g ai/ha): 0 | Plant response rating, Groundsel ([5]; 16 g ai/ha): 0 | Plant response rating, Ryegrass, Italian ([6]; 16 g ai/ha, Preemergence): 98 | Plant response rating, Ryegrass, Italian ([6]; 31 g ai/ha, Preemergence): 100 | Plant response rating, Ryegrass, Italian ([6]; 62 g ai/ha, Preemergence): 100 | Plant response rating, Ryegrass, Italian ([6]; Postemergence, 8 g ai/ha): 20 | Plant response rating, Ryegrass, Italian ([6]; Postemergence, 16 g ai/ha): 20 | Plant response rating, Ryegrass, Italian ([6]; Postemergence, 31 g ai/ha): 60 | Plant response rating, Ryegrass, Italian ([6]; Postemergence, 62 g ai/ha): 95 | Plant response rating, Foxtail, Green ([7]; 8 g ai/ha, Preemergence): 15 | Plant response rating, Foxtail, Green ([7]; 16 g ai/ha, Preemergence): 35 | Plant response rating, Foxtail, Green ([7]; 31 g ai/ha, Preemergence): 90 | Plant response rating, Foxtail, Green ([7]; 62 g ai/ha, Preemergence): 98 | Plant response rating, Foxtail, Green ([7]; Postemergence, 8 g ai/ha): 40 | Plant response rating, Foxtail, Green ([7]; Postemergence, 16 g ai/ha): 60 | Plant response rating, Foxtail, Green ([7]; Postemergence, 31 g ai/ha): 65 | Plant response rating, Foxtail, Green ([7]; Postemergence, 62 g ai/ha): 75 | Plant response rating, Dallisgrass ([8]; 8 g ai/ha, Preemergence): 0 | Plant response rating, Dallisgrass ([8]; 16 g ai/ha, Preemergence): 40 | Plant response rating, Dallisgrass ([8]; 31 g ai/ha, Preemergence): 90 | Plant response rating, Dallisgrass ([8]; 62 g ai/ha, Preemergence): 90 | Plant response rating, Dallisgrass ([8]; Postemergence, 8 g ai/ha): 30 | Plant response rating, Dallisgrass ([8]; Postemergence, 16 g ai/ha): 30 | Plant response rating, Dallisgrass ([8]; Postemergence, 31 g ai/ha): 50 | Plant response rating, Dallisgrass ([8]; Postemergence, 62 g ai/ha): 60 | Plant response rating, Nutsedge, Purple ([9]; 16 g ai/ha, Preemergence): 0 | Plant response rating, Nutsedge, Purple ([9]; 62 g ai/ha, Preemergence): 0 | Plant response rating, Nutsedge, Purple ([9]; Postemergence, 8 g ai/ha): 0 | Plant response rating, Nutsedge, Purple ([9]; Postemergence, 16 g ai/ha): 0 | Plant response rating, Nutsedge, Purple ([9]; Postemergence, 31 g ai/ha): 0 | Plant response rating, Nutsedge, Purple ([9]; Postemergence, 62 g ai/ha): 0 | Plant response rating, Barnyardgrass ([10]; 8 g ai/ha, Preemergence): 40 | Plant response rating, Barnyardgrass ([10]; 16 g ai/ha, Preemergence): 80 | Plant response rating, Barnyardgrass ([10]; 31 g ai/ha, Preemergence): 95 | Plant response rating, Barnyardgrass ([10]; 62 g ai/ha, Preemergence): 100 | Plant response rating, Barnyardgrass ([10]; Postemergence, 8 g ai/ha): 60 | Plant response rating, Barnyardgrass ([10]; Postemergence, 16 g ai/ha): 75 | Plant response rating, Barnyardgrass ([10]; Postemergence, 31 g ai/ha): 100 | Plant response rating, Barnyardgrass ([10]; Postemergence, 62 g ai/ha): 100 | Plant response rating, Surinam Grass ([11]; 16 g ai/ha, Preemergence): 95 | Plant response rating, Surinam Grass ([11]; 31 g ai/ha, Preemergence): 100 | Plant response rating, Surinam Grass ([11]; 62 g ai/ha, Preemergence): 100 | Plant response rating, Surinam Grass ([11]; Postemergence, 8 g ai/ha): 70 | Plant response rating, Surinam Grass ([11]; Postemergence, 16 g ai/ha): 75 | Plant response rating, Surinam Grass ([11]; Postemergence, 31 g ai/ha): 80 | Plant response rating, Surinam Grass ([11]; Postemergence, 62 g ai/ha): 90 | Plant response rating, Crabgrass, Naked ([12]; 8 g ai/ha, Preemergence): 75 | Plant response rating, Crabgrass, Naked ([12]; 16 g ai/ha, Preemergence): 98 | Plant response rating, Crabgrass, Naked ([12]; 31 g ai/ha, Preemergence): 100 | Plant response rating, Crabgrass, Naked ([12]; 62 g ai/ha, Preemergence): 100 | Plant response rating, Crabgrass, Naked ([12]; Postemergence, 8 g ai/ha): 50 | Plant response rating, Crabgrass, Naked ([12]; Postemergence, 16 g ai/ha): 50 | Plant response rating, Crabgrass, Naked ([12]; Postemergence, 31 g ai/ha): 95 | Plant response rating, Crabgrass, Naked ([12]; Postemergence, 62 g ai/ha): 95 | Plant response rating, Bluegrass ([13]; 8 g ai/ha, Preemergence): 0 | Plant response rating, Bluegrass ([13]; 16 g ai/ha, Preemergence): 0 | Plant response rating, Bluegrass ([13]; 31 g ai/ha, Preemergence): 0 | Plant response rating, Bluegrass ([13]; 62 g ai/ha, Preemergence): 0 | Plant response rating, Bluegrass ([13]; Postemergence, 8 g ai/ha): 0 | Plant response rating, Bluegrass ([13]; Postemergence, 16 g ai/ha): 0 | Plant response rating, Bluegrass ([13]; Postemergence, 31 g ai/ha): 0 | Plant response rating, Bluegrass ([13]; Postemergence, 62 g ai/ha): 0 | Plant response rating, Guineagrass ([14]; 16 g ai/ha, Preemergence): 100 | Plant response rating, Guineagrass ([14]; 31 g ai/ha, Preemergence): 100 | Plant response rating, Guineagrass ([14]; 62 g ai/ha, Preemergence): 100 | Plant response rating, Guineagrass ([14]; Postemergence, 8 g ai/ha): 75 | Plant response rating, Guineagrass ([14]; Postemergence, 16 g ai/ha): 75 | Plant response rating, Guineagrass ([14]; Postemergence, 31 g ai/ha): 80 | Plant response rating, Guineagrass ([14]; Postemergence, 62 g ai/ha): 95 | Plant response rating, Itchgrass ([15]; 16 g ai/ha, Preemergence): 75 | Plant response rating, Itchgrass ([15]; 31 g ai/ha, Preemergence): 75 | Plant response rating, Itchgrass ([15]; 62 g ai/ha, Preemergence): 75 | Plant response rating, Itchgrass ([15]; Postemergence, 8 g ai/ha): 30 | Plant response rating, Itchgrass ([15]; Postemergence, 16 g ai/ha): 40 | Plant response rating, Itchgrass ([15]; Postemergence, 31 g ai/ha): 70 | Plant response rating, Itchgrass ([15]; Postemergence, 62 g ai/ha): 70
